According to US9212151B2, “Heterocyclic compounds useful for kinase inhibition” (Amitech Therapeutic Solutions, Inc., priority 2010, dated 2015):

Assay: MTT cell viability assay, compounds at 5, 1 and 0.2 μM, 48 hours
Type: cell-based
Settings: human, A549 tumor cells
Procedure: MTT assay is used to determine cell proliferation, percent of viable cells, and cytotoxicity. MTT (3-[4,5-dimethylthiazol-2-yl]2,5-diphenyltetrazolium bromide) is a yellow dye, which can be absorbed by the living cells and be reduced to purplish blue formazan crystals by succinate tetrazolium reductase in mitochondria. Formazan formation can therefore be used to assess and determine the survival rate of cells.
Tumor cells (A549) were plated at 2500 cells/well of a 96-well plate in complete growth medium (DMEM+10% FBS, antibiotic/antimycotic, fungizone, L-glutamine, sodium pyruvate, and non-essential amino acids). The cells were allowed to grow overnight. After cell proliferation, the cells were washed and re-suspended in fresh culture medium and placed in 96 well plates.
To each of the 96 well plates containing A549 and a control, 5, 1, and 0.2 μM of the exemplary compounds 1-200 were add. The 96 well plates were incubated for 48 hours. Cell viability was measured by adding MTT (Sigma) at 5 mg/ml for 4 h to the cells and then removing the medium and resuspending each well in 50 μl DMSO to solubilize the crystals. The 96-well plates were read on a plate-scanning spectrophotometer (BioTek) at an absorbance of […]. The survival rate of cells was calculated based on the measurement of absorption at the 570 nm wavelength by enzyme immunoassay analyzer.

SMILES	viability at 48 h, 0.2 µM (0.2 μM)	viability at 48 h, 1 µM (1 μM)	viability at 48 h, 5 µM (5 μM)	viability at 48 h, 0.2 µM (0.2 μM compound)	viability at 48 h, 1 µM (1 μM compound)	viability at 48 h, 5 µM (5 μM compound)
CC(=O)NCCSc1nc(N)cc(Oc2ccc(-c3nnc(Nc4cccc(C(F)(F)F)c4)[nH]3)cc2)n1 [Compound 114]	> 70%	> 70%	> 70%			
CCOc1nc(N)cc(Oc2cccc(-c3nnc(Nc4cccc(C(F)(F)F)c4)[nH]3)c2)n1 [Compound 97]	> 70%	> 70%	> 70%			
FC(F)(F)c1cccc(Nc2nnc(-c3cccc(Oc4ccnc5ccccc45)c3)o2)c1 [Compound 42]	> 70%	> 70%	> 70%			
Nc1cc(F)cc(Oc2ccc(-c3nnc(Nc4cccc(C(F)(F)F)c4)[nH]3)cc2)c1 [Compound 156]	> 70%	> 70%	50 to 70%			
Nc1cc(Oc2ccc(-c3nnc(Nc4cccc(C(F)(F)F)c4)[nH]3)cc2)ncn1 [Compound 2]	> 70%	> 70%	> 70%			
Fc1ccc2c(Oc3ccc(-c4nnc(Nc5cccc(C(F)(F)F)c5)[nH]4)cc3)ccnc2c1 [Compound 186]	> 70%	> 70%	> 70%			
Cc1nc(N)cc(Oc2cccc(-c3nnc(Nc4cccc(C(F)(F)F)c4)[nH]3)c2)n1 [Compound 100]	> 70%	> 70%	> 70%			
CSc1nc(N)cc(Oc2ccc(-c3nnc(Nc4cc(C(F)(F)F)cc(C(F)(F)F)c4)[nH]3)cc2)n1 [Compound 120]	> 70%	> 70%	> 70%			
COc1ccc2c(Oc3cc(-c4nnc(Nc5cccc(C(F)(F)F)c5)[nH]4)ccc3C)ccnc2c1 [Compound 197]				> 70%	> 70%	> 70%
COc1ccc2c(Oc3ccc(-c4nnc(Nc5cccc(C(F)(F)F)c5)o4)cc3)ccnc2c1 [Compound 33]	> 70%	> 70%	> 70%			
COc1cc2ncnc(Oc3ccc(-c4nnc(Nc5cccc(C(F)(F)F)c5)[nH]4)cc3)c2cc1OC [Compound 160]	> 70%	> 70%	50 to 70%			
CCOc1cc(Oc2ccc(-c3nnc(Nc4cccc(C(F)(F)F)c4)[nH]3)cc2)nc(N)n1 [Compound 52]	> 70%	> 70%	> 70%			
CSc1nc(N)cc(Oc2ccc(-c3nnc(Nc4cccc(C(F)(F)F)c4)[nH]3)c(Cl)c2)n1 [Compound 112]	> 70%	> 70%	> 70%			
CCc1cccc(Nc2nnc(-c3ccc(Oc4cc(N)nc(SC)n4)cc3)[nH]2)c1 [Compound 122]	> 70%	> 70%	< 50%			
CSc1nc(N)cc(Oc2ccc(-c3nnc(NC4CCCCC4)[nH]3)cc2)n1 [Compound 155]	> 70%	> 70%	< 50%			
FC(F)(F)c1cccc(Nc2nnc(-c3ccc(OCc4ccncc4)cc3)[nH]2)c1 [Compound 143]	> 70%	> 70%	> 70%			
Cc1nc(C(F)(F)F)nc(Oc2ccc(-c3nnc(Nc4cccc(C(F)(F)F)c4)[nH]3)cc2)c1C [Compound 157]	> 70%	> 70%	> 70%			
FC(F)(F)c1cccc(Nc2nnc(-c3ccc(Oc4cncc5ccccc45)cc3)[nH]2)c1 [Compound 146]	> 70%	> 70%	< 50%			
Nc1nccc(Oc2ccc(-c3nnc(Nc4cccc(C(F)(F)F)c4)o3)cc2)n1 [Compound 27]	> 70%	> 70%	50 to 70%			
CC(C)(C)Sc1nc(N)cc(Oc2cccc(-c3nnc(Nc4cccc(C(F)(F)F)c4)[nH]3)c2)n1 [Compound 98]	> 70%	> 70%	> 70%			
CSc1nc(N)cc(Oc2ccc(-c3nnc(Nc4cccc(C(F)(F)F)c4)[nH]3)c(F)c2)n1 [Compound 107]	> 70%	> 70%	50 to 70%			
COc1ccc2c(Oc3cccc(-c4nnc(Nc5cccc(C(F)(F)F)c5)o4)c3)ccnc2c1 [Compound 41]	> 70%	> 70%	> 70%			

SMILES	viability at 48 h, 0.2 µM (0.2 μM)	viability at 48 h, 1 µM (1 μM)	viability at 48 h, 5 µM (5 μM)	viability at 48 h, 0.2 µM (0.2 μM compound)	viability at 48 h, 1 µM (1 μM compound)	viability at 48 h, 5 µM (5 μM compound)
COc1nccc(Oc2cccc(-c3nnc(Nc4cccc(C(F)(F)F)c4)[nH]3)c2)n1 [Compound 88]	> 70%	> 70%	> 70%			
COc1ccc2c(Oc3ccc(-c4nnc(Nc5cccc(C(F)(F)F)c5)[nH]4)cc3)ncnc2c1 [Compound 70]	> 70%	> 70%	< 50%			
CCc1nc(N)cc(Oc2cccc(-c3nnc(Nc4cccc(C(F)(F)F)c4)[nH]3)c2)n1 [Compound 99]	> 70%	> 70%	50 to 70%			
FC(F)(F)c1cccc(Nc2nnc(-c3cccc(Oc4ccnc5[nH]ccc45)c3)[nH]2)c1 [Compound 85]	> 70%	> 70%	50 to 70%			
CSc1nc(N)cc(Oc2ccc(-c3nnc(Nc4cccc(C#N)c4)[nH]3)cc2)n1 [Compound 128]	> 70%	> 70%	> 70%			
CSc1nc(N)cc(Oc2ccc(-c3nnc(Nc4ccccc4Cl)[nH]3)cc2)n1 [Compound 140]	> 70%	> 70%	50 to 70%			
CSc1nc(N)cc(Oc2ccc(-c3nnc(Nc4cccc(OC(C)C)c4)[nH]3)cc2)n1 [Compound 134]	> 70%	> 70%	< 50%			
CSc1nc(N)cc(Oc2c(C)cc(-c3nnc(Nc4cccc(C(F)(F)F)c4)[nH]3)cc2C)n1 [Compound 110]	> 70%	> 70%	> 70%			
CSc1nc(N)cc(Oc2ccc(-c3nnc(Nc4cccc(C(C)(C)C#N)c4)[nH]3)cc2)n1 [Compound 131]	> 70%	> 70%	< 50%			
COc1nccc(Oc2ccc(-c3nnc(Nc4cccc(C(F)(F)F)c4)[nH]3)cc2)n1 [Compound 71]	> 70%	> 70%	50 to 70%			
COc1ccc2c(Oc3cccc(-c4nnc(Nc5cccc(C(F)(F)F)c5)[nH]4)c3)ncnc2c1 [Compound 87]	> 70%	> 70%	> 70%			
FC(F)(F)c1cccc(Nc2nnc(-c3ccc(Oc4ccnc5cc(Cl)ccc45)cc3)[nH]2)c1 [Compound 150]	> 70%	> 70%	> 70%			
COc1ccc2c(Oc3ccc(-c4nnc(Nc5cccc(C(F)(F)F)c5)s4)cc3)ccnc2c1 [Compound 46]	> 70%	> 70%	< 50%			
CSc1nc(N)cc(Sc2ccc(-c3nnc(Nc4cccc(C(F)(F)F)c4)[nH]3)cc2)n1 [Compound 119]	> 70%	< 50%	< 50%			
CSc1nc(N)cc(Oc2ccc(-c3nnc(Nc4ccc5c(c4)-c4ccccc4C5)[nH]3)cc2)n1 [Compound 136]	> 70%	50 to 70%	< 50%			
FC(F)(F)c1cccc(Nc2nnc(-c3ccc(Oc4ccnc5[nH]ccc45)cc3)[nH]2)c1 [Compound 68]	> 70%	50 to 70%	< 50%			
COc1nc(Oc2cccc(-c3nnc(Nc4cccc(C(F)(F)F)c4)[nH]3)c2)c2cc[nH]c2n1 [Compound 92]	> 70%	> 70%	> 70%			
Cc1cc(Oc2ccc(-c3nnc(Nc4cccc(C(F)(F)F)c4)[nH]3)cc2)ccn1 [Compound 74]	> 70%	< 50%	< 50%			
CSc1nc(N)cc(Oc2ccc(-c3nnc(Nc4cccc(Cl)c4)[nH]3)cc2)n1 [Compound 133]	> 70%	< 50%	< 50%			
FC(F)(F)c1cccc(Nc2nnc(-c3cccc(Oc4nccc5ccccc45)c3)[nH]2)c1 [Compound 166]	> 70%	> 70%	> 70%			
FC(F)(F)c1cccc(Nc2nnc(-c3cccc(Oc4cc(C(F)(F)F)nc5ccccc45)c3)[nH]2)c1 [Compound 169]	> 70%	> 70%	> 70%			
FC(F)(F)c1cccc(Nc2nnc(-c3cccc(Oc4ccnc5cc(OCc6ccccc6)ccc45)c3)[nH]2)c1 [Compound 193]	> 70%	> 70%	> 70%			
